Measured values published in publication PMC11017252, “Copper(II) Complexes with 2,2′:6′,2″-Terpyridine Derivatives Displaying Dimeric Dichloro−μ–Bridged Crystal Structure: Biological Activities from 2D and 3D Tumor Spheroids to In Vivo Models” (Journal of Medicinal Chemistry, 2024).
Like-named read-outs stand apart in the source and are kept apart here.

Experiments:
[1] = tested on: HCT116 (colorectal carcinoma cell line); assay: MTS cell viability assay, 2D culture, HCT116; type: cell-based, human
Procedure: (§1) The in vitro cytotoxic potential of Cu(II) complexes in tumor and healthy cells was assessed using the MTS assay, a colorimetric method that allows the quantification of viable cells in culture.[46]
Cell culture and maintenance
(§2) The cancer cell lines HCT116 (colorectal carcinoma) and A2780 (ovarian carcinoma) were obtained
(§3) from the American Type Culture Collection (ATCC®, Manassas, VA, USA), as well as the normal
human primary dermal fibroblasts.
(§4) Apart from the A2780 cell line, which was cultured in Roswell Park Memorial Institute (RPMI)
(§5) medium, all cells were cultured in Dulbecco’s modified Eagle medium (DMEM). Both media were
(§6) supplemented with 10% (v/v) fetal bovine serum (FBS) and 1% (v/v) of a Pen/Strep
(§7) (Penicillin/Streptomycin) solution. To maintain the resistant phenotype of the HCT116DoxR cell line,
(§8) the medium was additionally supplemented with 3.6 μM Dox4. All media and supplements were
(§9) purchased from Thermo Fischer Scientific (Waltham, MA, USA).
(§10) Cells were maintained in 25 cm2 T-flasks (T25) in a humidified atmosphere at 37 °C and 5% (v/v) CO
(§11) (SANYO CO2 Incubator, Electric Biomedical Co., Osaka, Japan).
(§12) The effect of Cu(II) complexes on cell viability was studied in HCT116, HCT116DoxR, and A2780
(§13) cancer cell lines and in normal human primary fibroblasts. Cells were seeded in a density of 0.75×105
(§14) cells/mL into 96-well plates and incubated in a humidified atmosphere at 37 °C and 5% (v/v) CO2 for
(§15) 24 h. After incubation, complexes were weighed, immediately solubilized in 100% (v/v) DMSO and
(§16) diluted for the final concentration with cell culture medium. The medium in each well was replaced by
(§17) a solution of fresh medium containing each Cu(II) complex (concentrations ranging from 0.01 μM to
(§18) as negative and positive controls, respectively.
(§19) Following a second incubation period of 48 h in the same conditions, the supernatant of each well was
(§20) replaced by a solution containing MTS reagent (3-(4,5-dimethylthiazol-2-yl)-5-(3-
(§21) carboxymethoxyphenyl)-2-(4-sulfophenyl)-2H-tetrazolium) provided by the CellTiter 96® AQueous
(§22) Non-Radioactive Cell Proliferation Assay Kit (Promega, Madison, WI, EUA) for a 30 minutes
(§23) incubation. The percentage of viable cells was indirectly determined by the spectrophotometric
(§24) quantification at 490 nm in a microplate reader, Tecan Infinite M200 (Tecan, Männedorf, Switzerland)
(§25) of formazan production, resultant from the reduction of the MTS reagent by mitochondrial
(§26) dehydrogenases. Since these enzymes are only active in viable cells, the absorbance value measured is
(§27) directly proportional to the percentage of viable cells in culture5.
(§28) By analysing the cell viability as a function of log10(concentration) using Prism 8 (GraphPad
(§29) in cell viability) of each complex in the respective cell line at 48 h. The selective index (SI) for each
(§30) complex was also determined by dividing the IC50 of human fibroblasts by the respective IC50 in each
(§31) cancer cell line (allowing us to understand how much active a complex is in tumor versus normal cell).

[2] = tested on: A2780 (ovarian carcinoma cell line); assay: MTS cell viability assay, 2D culture, A2780; type: cell-based, human
Procedure: as §1
Cell culture and maintenance
as §2, §3
human primary dermal fibroblasts.
as §4, §5, §6, §7, §8, §9, §10, §11, §12, §13, §14, §15, §16, §17, §18, §19, §20, §21, §22, §23, §24, §25, §26, §27, §28, §29, §30, §31

caspase-8 = assay: Caspase-8 activity (IETD-pNA cleavage); type: cell-based, human; conditions: HCT116DoxR, 48 h; complexes at IC50, cisplatin 5 μM
Procedure: In this assay, the chromogenic substrate IETD-pNA, resulting from the conjugation between the peptide IETD (Ile-Glu-Thr-Asp) and the chromophore pNA (p-nitroanilide), is cleaved by caspase-8, releasing the chromophore, which is detected by measuring absorbance at 400 nm.[48] […]
treated with ECLTM Prime Western Blotting Detection Reagents (Cytiva, United Kingdom) for 5 min and exposed to a film in a dark room. Membranes were later incubated (with agitation) twice with Stripping buffer (0.1M glycine, 20 mM magnesium acetate, 50 mM KCl, pH 2.0) during 10 and 20 min, respectively, and subsequently incubated with anti-β-actin (1:5000; Sigma, St. Louis, USA) as a control to normalize the results. Proteins were quantified by densitometry using Image J software.
The Caspase-8 activity in HCT116DoxR cells exposed to Cu(II) complexes was evaluated using the Caspase-8 Assay kit (ab39700) (Abcam, Cambridge, United Kingdom). […]
The plate was then incubated for 2 h at 37°C, after which, absorbance was read at 400 nm on a Tecan Infinite M200 microplate reader (Männedorf, Switzerland).
ΔΨm was evaluated in HCT116DoxR cell line by using the JC-1 Mitochondrial Membrane Potential Assay Kit (Abnova Corporation, Walnut, CA, USA). […]
Autophagy induction in HCT116DoxR cell line was evaluated using the Autophagy Assay Kit (ab139484) (Abcam, Cambridge, United Kingdom) according to the manufacturers’ instructions. […]

HCT116DoxR cells [3] = assay: Cell cycle progression (PI, flow cytometry)
From the text: Therefore, we have assessed the cytostatic potential of complexes 2, 3, 5, and 7, and their ability to interfere with the progression of the cell cycle using the fluorescent marker PI. Since this marker can intercalate with DNA, the measurement of the fluorescence emitted by flow cytometry makes it possible to assess the DNA content at each stage of the cell cycle (G0/G1, S, and G2/M).[67] To ensure that all the cells were in the same phase before their exposure to the complexes, a double block was carried out with thymidine, a DNA synthesis inhibitor.[67]
(§32) HCT116DoxR cell line was seeded in 6-well plates in a density of 1×10^5 cells/mL and incubated for
(§33) 24 h. Afterwards, the culture medium was replaced by medium with IC50 concentrations of different
HCT116DoxR cell line was seeded in 6-well plates in a density of 1×10^5 cells/mL, incubated for 8 h in
a humidified atmosphere at 37 °C and 5% (v/v) CO2, and later synchronized in early S-phase with a 2
mM thymidine solution (Merck, Germany) for a 16 h period. Later, medium with thymidine was
replaced by fresh media and, after 8 h a second block with thymidine was performed in the same
concentrations of Cu(II) complexes. 0.1% (v/v) DMSO was used as the vehicle control while 5 μM
After treatment, cells were incubated for 9, 12,

HCT116DoxR cells [4] = assay: Annexin V-FITC/PI apoptosis assay by flow cytometry; conditions: 48 h, complexes at IC50, Dox 6 μM, cisplatin 5 μM
Procedure: To evaluate the cell death mechanism involved in the cytotoxic effect of the selected complexes, a double-staining with Annexin V-FITC and PI was performed. […] The use of Annexin V conjugated with the fluorophore FITC allows the quantification of this interaction and subsequent identification of cells in apoptosis by flow cytometry. Furthermore, PI is a fluorophore that can intercalate with DNA and that can only enter the cell when the membrane is either compromised or ruptured, making it possible to identify cells undergoing late apoptosis and necrosis. Therefore, the double staining makes it possible to distinguish between viable cells (FITC^–; IP^–), those undergoing initial apoptosis (FITC^+; IP^–), those undergoing late apoptosis (FITC^+; IP^+), and those undergoing necrosis (FITC^–; IP^+).[55],[58]
Evaluation of apoptosis induction in HCT116DoxR cell line by flow cytometry The induction of apoptosis in HCT116DoxR cell line was evaluated by flow cytometry, using the
Annexin V-FITC Apoptosis Detection Kit (Thermo Fisher Scientific, Waltham, MA, USA). Cells
were seeded in 6-well plates at a cell density of 1×10^5 cells/mL and incubated for 24 h. Afterwards,
culture medium was replaced by medium with different Cu(II) complexes at their IC50 concentrations.
After 48 h of incubation, cells were washed with PBS 1x, detached from each well with TrypLETM
Express and washed again with PBS 1x. Cells were then resuspended in 1x annexin-binding buffer and
incubated at rt for 15 min with Annexin V-FITC and 100 μg/mL PI.
All samples were analysed by an Attune® Acoustic Focusing Flow Cytometer (Thermo Fischer
Scientific, Waltham, MA, USA) and the results were processed with Attune® Cytometric software

HCT116DoxR cells [5] = assay: Cellular senescence (β-galactosidase, flow cytometry); conditions: 48 h; complexes at IC50, cisplatin 5 μM, Dox 6 μM
Procedure: Given the ability of the Cu(II) complexes to interfere with the progression of the cell cycle, the senescence of HCT116DoxR cells was analyzed after 48 h of exposure to their IC50 concentrations. […] To study the senescence-inducing capacity of the complexes, the activity of β-galactosidase, whose increased expression is associated with senescence, was quantified by flow cytometry (Figure 16).[73]
as §32, §33
(TBHP) were used as controls. After an incubation period of 48 h, cells were washed with PBS 1x, detached with TrypLETM Express and washed again with PBS 1x.

[6] = tested on: normal human primary dermal fibroblasts; set-up: method as in PMID 29688241; conditions: 48 h; previously obtained; cited from earlier work
[7] = tested on: HCT116DoxR (Dox-resistant colorectal carcinoma cell line); assay: MTS cell viability assay, 2D culture, HCT116DoxR; conditions: read-out: IC50 (μM) HCT116DoxR, 48 h of exposure
Procedure: as §1
In this regard, cell viability was performed for each of the ligands on HCT116DoxR and fibroblasts.
Cell culture and maintenance
as §2, §3
human primary dermal fibroblasts.
as §4, §5, §6, §7, §8, §9, §10, §11, §12, §13, §14, §15, §16, §17, §18, §19, §20, §21, §22, §23, §24, §25, §26, §27

[8] = tested on: HCT116DoxR (Dox-resistant colorectal carcinoma cell line); conditions: cited from earlier work

| Structure (SMILES) | IC50 ([1]; 48 h of exposure) | IC50 ([2]; 48 h of exposure) | increase in caspase-8 activity compared to vehicle control (DMSO) (caspase-8) | cell cycle progression after 24 h (HCT116DoxR cells [3]; 24 h, complexes at IC50, cisplatin 5 μM) | cells (%) early apoptosis (HCT116DoxR cells [4]) | cells (%) late apoptosis (HCT116DoxR cells [4]) | cells (%) necrosis (HCT116DoxR cells [4]) | percentage of apoptosis (early + late) (HCT116DoxR cells [4]) | induction of cellular senescence compared to DMSO control (HCT116DoxR cells [5]) | IC50 [6] | IC50 [7] | IC50 ([1]; Homo sapiens, HCT-116, 48 h of exposure) | IC50 ([2]; Homo sapiens, A2780, 48 h of exposure) | IC50 [8] | cell cycle arrest in the G2/M phase (HCT116DoxR cells [3]; Dox 6 μM, 9–24 h) | cells (%) viable (HCT116DoxR cells [4]) | viability at 6 µM (HCT116DoxR cells [4]; Homo sapiens, read-out: cells (%) viable, 48 h) |
| --- | --- | --- | --- | --- | --- | --- | --- | --- | --- | --- | --- | --- | --- | --- | --- | --- | --- |
| N.N.[Cl][Pt][Cl] [cisplatin, reference compound] | 15.6 ± 5.3 µM | 1.9 ± 0.2 µM | 2- to 3 fold | delay the cycle in the G2/M phase | 47.5 ± 7.2% | 19.8 ± 5.9% | 0.1 ± 0.1% | 65 to 70% | induce cellular senescence |  |  |  |  |  |  |  |  |
| COc1ccc(-c2cc(-c3ccccn3)nc(-c3ccccn3)c2)c2ccccc12 [L3] |  |  |  |  |  |  |  |  |  | 0.95 ± 0.08 µM | 0.2 ± 0.02 µM |  |  |  |  |  |  |
| COc1cccc2c1C(=O)c1c(O)c3c(c(O)c1C2=O)C[C@@](O)(C(=O)CO)C[C@@H]3O[C@H]1C[C@H](N)[C@H](O)[C@H](C)O1 [Dox, doxorubicin, reference compound] |  |  |  |  | 16.6 ± 5.5% | 13.9 ± 1.9% | 9.8 ± 4.0% | ~31% | did not induce an increase in cellular senescence |  |  | 0.5 ± 0.1 µM | 0.1 ± 0.04 µM | > 6 µM | not verified | 59.8 ± 3.8% | ~60% |
